Measured values published in patent publication US6784137B2, “6-aryl-4-aminopicolinates and their use as herbicides” (Dow AgroSciences LLC, priority 2001, dated 2004).
Read-outs that look alike come from different tables or passages of the source.

How the values were obtained:
[1] = system: Cocklebur (Xanthium strumarium); test: Postemergence herbicidal activity, greenhouse spray; type: in vivo; conditions: visual score after 2 weeks
Procedure: (§1) When required to ensure good germination and healthy plants, a fungicide treatment and/or other chemical or physical treatment was applied. The plants were grown for 7-21 days in a greenhouse with an approximate 15 hr photoperiod which was maintained at about 23-29° C. during the day and 22-28° C. during the night. Nutrients and water were added on a regular basis and supplemental lighting was provided with overhead metal halide 1000-Watt lamps as necessary. The plants were employed for testing when they reached the first or second true leaf stage. A weighed amount, determined by the highest rate to be tested, of each test compound was placed in a 20 mL glass vial and was dissolved in 4 mL of a 97:3 v/v (volume/volume) mixture of acetone and dimethyl sulfoxide (DMSO) to obtain concentrated stock solutions. […] The concentrated stock solutions obtained were diluted with an aqueous mixture containing acetone, water, isopropyl alcohol, DMSO, At plus 411 F crop oil concentrate, and Triton X-155 surfactant in a 48.5:39:10:1.5:1.0:0.02 v/v ratio to obtain spray solutions of known concentration. The solutions containing the highest concentration to be tested were prepared by diluting 2 mL aliquots of the stock solution with 13 mL of the mixture and lower concentrations were prepared by serial dilution of the stock solution. Approximately 1.5 mL aliquots of each solution of known concentration were sprayed evenly onto each of the test plant pots using a DeVilbiss atomizer driven by compressed air pressure of 2 to 4 psi (140 to 280 kiloPascals) to obtain thorough coverage of each plant. Control plants were sprayed in the same manner with the aqueous mixture. […] The treated plants and control plants were placed in a greenhouse as described above and watered by sub-irrigation to prevent wash-off of the test compounds.

[2] = system: Yellow nutsedge (Cyperus esculentus); test: as above; type: in vivo; conditions: visual score after 2 weeks
Procedure: as §1

[3] = system: Lambsquarter (Chenopodium album); test: as above; type: in vivo; conditions: visual score after 2 weeks
Procedure: as §1

[4] = system: Barnyardgrass (Echinochloa crus-galli); test: as above; type: in vivo; conditions: visual score after 2 weeks
Procedure: as §1

[5] = Xanthium strumarium, post-emergence, 336 h, Table 1, rate 500 ppm, 0 no injury, 100 complete kill, read-out: Post-emergent % control XANST
[6] = Cyperus, post-emergence, 336 h, Table 1, rate 500 ppm, read-out: Post-emergent % control CYPES
[7] = Chenopodium album, post-emergence, 336 h, Table 1, rate 500 ppm, read-out: Post-emergent % control CHEAL
[8] = Echinochloa crus-galli, post-emergence, 336 h, Table 1, rate 500 ppm, read-out: Post-emergent % control ECHCG
[9] = Xanthium strumarium, post-emergence, 336 h, Table 1, rate 125 ppm, read-out: Post-emergent % control XANST
[10] = Cyperus, post-emergence, 336 h, Table 1, rate 125 ppm, read-out: Post-emergent % control CYPES
[11] = Chenopodium album, post-emergence, 336 h, Table 1, rate 125 ppm, read-out: Post-emergent % control CHEAL
[12] = Echinochloa crus-galli, post-emergence, 336 h, Table 1, rate 125 ppm, read-out: Post-emergent % control ECHCG
[13] = Table 1, rate 500 ppm, 0 no injury, 100 complete kill

With `COC(=O)c1nc(-c2ccccc2F)cc(N)c1Cl` [Compound 33, Methyl 4-amino-3-chloro-6-(2-fluorophenyl)pyridine-2-carboxylate] the pest or weed control at 500 ppm [1, 5] was 100%, the pest or weed control at 500 ppm [2, 6] was 10% and the pest or weed control at 500 ppm [3, 7] was 100%. For the same compound, the pest or weed control at 500 ppm [4, 8] was 30%.
In the case of `COC(=O)c1nc(-c2ccc(C(F)(F)F)cc2)c(Cl)c(N)c1Cl` [Compound 44, Methyl 4-amino-3,5-dichloro-6-[4-(trifluoromethyl)phenyl]pyridine-2-carboxylate], the pest or weed control at 250 ppm ([1]; Xanthium strumarium, post-emergence, 336 h, Table 1, rate 250 ppm, read-out: Post-emergent % control XANST) is reported as 100%, the pest or weed control at 250 ppm ([2]; Cyperus, post-emergence, 336 h, Table 1, rate 250 ppm, read-out: Post-emergent % control CYPES) is reported as 70% and the pest or weed control at 250 ppm ([3]; Chenopodium album, post-emergence, 336 h, Table 1, rate 250 ppm, read-out: Post-emergent % control CHEAL) is reported as 80%. For the same compound, the pest or weed control at 250 ppm ([4]; Echinochloa crus-galli, post-emergence, 336 h, Table 1, rate 250 ppm, read-out: Post-emergent % control ECHCG) was 30% and the melting point was 110 to 111 °C.
Compound `COC(=O)c1nc(-c2ccc3ccccc3c2)cc(N)c1Cl` [Compound 47, Methyl 4-amino-3-chloro-6-(2-naphthyl)pyridine-2-carboxylate] has a pest or weed control at 500 ppm [1, 5] of 90%, a pest or weed control at 500 ppm [2, 6] of 0% and a pest or weed control at 500 ppm [3, 7] of 90%. It also gave a pest or weed control at 500 ppm [4, 8] of 80% and a melting point of 108 to 109 °C.
With `COC(=O)c1nc(-c2ccc(Cl)cc2Cl)c(F)c(NC(C)=O)c1Cl` [Compound 49, Methyl 4-acetamido-3-chloro-5-fluoro-6-(2,4-dichlorophenyl)pyridine-2-carboxylate] the pest or weed control at 125 ppm [1, 9] was 100%, the pest or weed control at 125 ppm [2, 10] was 30% and the pest or weed control at 125 ppm [3, 11] was 80%. It also gave a pest or weed control at 125 ppm [4, 12] of 10% and a melting point of 178 to 179 °C.
For `COC(=O)c1nc(-c2ccc(Cl)s2)cc(N)c1Cl` [Compound 98, Methyl 4-amino-3-chloro-6-(5-chloro-2-thienyl)pyridine-2-carboxylate], the pest or weed control at 125 ppm [1, 9] was 90%, the pest or weed control at 125 ppm [2, 10] was 70% and the pest or weed control at 125 ppm [3, 11] was 90%. The pest or weed control at 125 ppm [4, 12] was 50%.
With `COC(=O)c1nc(-c2ccc(C)nn2)cc(N)c1Cl` [Compound 121, Methyl 4-amino-3-chloro-6-(3-(6-methyl)pyridazinyl)pyridine-2-carboxylate] the “Post-emergent % control XANST” value ([1]; Table 2, rate 125 ppm) was 100%, the “Post-emergent % control CYPES” value ([2]; Table 2, rate 125 ppm) was 80% and the “Post-emergent % control CHEAL” value ([3]; Table 2, rate 125 ppm) was 90%. The “Post-emergent % control ECHCG” value ([4]; Table 2, rate 125 ppm) was 80%.
For `Nc1c(Cl)c(C(=O)O)nc(-c2ccc(C(F)(F)F)cc2)c1Cl` [Compound 171, 4-Amino-3′,5-dichloro-6-[4-(trifluoromethyl)phenyl]pyridine-2-carboxylic acid], the “Post-emergent % control XANST” value [1, 13] was 100%, the “Post-emergent % control CYPES” value ([2]; Table 1, rate 500 ppm) was 60% and the “Post-emergent % control CHEAL” value ([3]; Table 1, rate 500 ppm) was 95%. For the same compound, the “Post-emergent % control ECHCG” value ([4]; Table 1, rate 500 ppm) was 80%.
`Nc1c(F)c(-c2ccc(Cl)cc2)nc(C(=O)O)c1Cl` [Compound 183, 4-Amino-3-chloro-5-fluoro-6-(4-chlorophenyl)pyridine-2-carboxylic acid] showed a pest or weed control at 125 ppm ([1]; Xanthium strumarium, post-emergence, 336 h, Table 2, rate 125 ppm, read-out: Post-emergent % control XANST) of 100%, a pest or weed control at 125 ppm ([2]; Cyperus, post-emergence, 336 h, Table 2, rate 125 ppm, read-out: Post-emergent % control CYPES) of 100% and a pest or weed control at 125 ppm ([3]; Chenopodium album, post-emergence, 336 h, Table 2, rate 125 ppm, read-out: Post-emergent % control CHEAL) of 100%. For the same compound, the pest or weed control at 125 ppm ([4]; Echinochloa crus-galli, post-emergence, 336 h, Table 2, rate 125 ppm, read-out: Post-emergent % control ECHCG) was 100%.
With `Nc1c(F)c(C(=O)O)nc(-c2ccc(C(F)(F)F)cc2)c1F` [Compound 200, 4-Amino-3,5-fluoro-6-(4-(trifluoromethyl)phenyl)pyridine-2-carboxylic acid] the “Post-emergent % control XANST” value [1, 13] was 100%, the “Post-emergent % control XANST” value ([1]; Table 2, rate 125 ppm) was 90% and the “Post-emergent % control CYPES” value ([2]; Table 1, rate 500 ppm) was 90%. The “Post-emergent % control CYPES” value ([2]; Table 2, rate 125 ppm) was 90%, the “Post-emergent % control CHEAL” value ([3]; Table 1, rate 500 ppm) was 95% and the “Post-emergent % control CHEAL” value ([3]; Table 2, rate 125 ppm) was 80%. For the same compound, the “Post-emergent % control ECHCG” value ([4]; Table 1, rate 500 ppm) was 95% and the “Post-emergent % control ECHCG” value ([4]; Table 2, rate 125 ppm) was 70%.
In the case of `Nc1cc(-c2ccsc2)nc(C(=O)O)c1Cl` [Compound 216, 4-Amino-3-chloro-6-(3-thienyl)pyridine-2-carboxylic acid], the melting point is reported as 184 °C.
`Cc1ccc(-c2cc(N)c(Cl)c(C(=O)O)n2)s1` [Compound 218, 4-Amino-3-chloro-6-(5-methyl-2-thienyl)pyridine-2-carboxylic acid] gave a melting point of 175 to 176 °C.
For `Nc1cc(-c2cnccn2)nc(C(=O)O)c1Cl` [Compound 220, 4-Amino-3-chloro-6-(2-pyrazinyl)pyridine-2-carboxylic acid], the melting point was 172 to 173 °C.
With `Nc1c(F)c(-c2ccc(Cl)nc2)nc(C(=O)O)c1Cl` [Compound 221, 4-Amino-3-chloro-5-fluoro-6-(6-chloro-3-pyridinyl)pyridine-2-carboxylic acid] the melting point was 125 °C (dec.).
Compound `Nc1cc(-c2nccs2)nc(C(=O)O)c1Cl` [Compound 222, 4-Amino-3-chloro-6-(2-thiazolyl)pyridine-2-carboxylic acid] has a melting point of 184 to 185 °C.
For `Cn1nccc1-c1cc(N)c(Cl)c(C(=O)O)n1` [Compound 223, 4-Amino-3-chloro-6-(1-methyl-1H-pyrazol-5-yl)pyridine-2-carboxylic acid], the melting point was 230 to 232 °C.
With `Nc1cc(-c2nc3ccccc3o2)nc(C(=O)O)c1Cl` [Compound 226, 4-Amino-3-chloro-6-(2-benzoxazolyl)pyridine-2-carboxylic acid] the melting point was 262 °C (dec.).
In the case of `Nc1cc(-c2cncnc2)nc(C(=O)O)c1Cl` [Compound 228, 4-Amino-3-chloro-6-(5-pyrimidinyl)pyridine-2-carboxylic acid], the melting point is reported as 180 °C.
With `Nc1cc(-c2nc3ccccc3s2)nc(C(=O)O)c1Cl` [Compound 230, 4-Amino-3-chloro-6-(2-benzothiazolyl)pyridine-2-carboxylic acid] the melting point was 283 °C.
`Nc1cc(-c2cnco2)nc(C(=O)O)c1Cl` [Compound 231, 4-Amino-3-chloro-6-(5-oxazolyl)pyridine-2-carboxylic acid] showed a melting point of 166 to 170 °C.
`COc1ncc(-c2cc(N)c(Cl)c(C(=O)O)n2)cn1` [Compound 239, 4-Amino-3-chloro-6-(2-methoxy-5-pyrimidinyl)pyridine-2-carboxylic acid] showed a melting point of 153 °C.
In the case of `Nc1c(Cl)c(C(=O)O)nc(-c2cncs2)c1Cl` [Compound 241, 4-Amino-3,5-dichloro-6-(5-thiazolyl)pyridine-2-carboxylic acid], the melting point is reported as 175 to 177 °C.
With `COC(=O)c1nc(-c2ccc(CO)cc2)cc(N)c1Cl` [Compound 242, Methyl 4-amino-3-chloro-6-(4-hydroxymethylphenyl)pyridine-2-carboxylate] the melting point was 138 to 139 °C.
Compound `COC(=O)c1nc(-c2ccc(CF)cc2)cc(N)c1Cl` [Compound 243, methyl 4-amino-3-chloro-6-(4-fluoromethylphenyl)pyridine-2-carboxylate] has a melting point of 95 to 97 °C.
Compound `CCCCCCCCCCOC(=O)c1nc(-c2ccc(Cl)cc2)c(F)c(N)c1Cl` [Compound 244, Decyl 4-amino-3-chloro-5-fluoro-6-(4-chlorophenyl)pyridine-2-carboxylate] has a melting point of 62 to 63 °C.
Work on `CCCCOCCOC(=O)c1nc(-c2ccc(Cl)cc2)c(F)c(N)c1Cl` [Compound 245, 2-Butoxyethyl 4-amino-3-chloro-5-fluoro-6-(4-chlorophenyl)pyridine-2-carboxylate] yielded a melting point of 103 to 104 °C.
`CCCCOC(=O)c1nc(-c2ccc(C)cc2)cc(N)c1Cl` [Compound 249, Butyl 4-amino-3-chloro-6-(4-methylphenyl)pyridine-2-carboxylate] showed a melting point of 60 to 62 °C.
Compound `CCOC(=O)c1nc(-c2ccc(Cl)cc2)c(F)c(N)c1Cl` [Compound 252, Ethyl 4-amino-3-chloro-5-fluoro-6-(4-chlorophenyl)pyridine-2-carboxylate] has a melting point of 88 to 89 °C.
`CCOC(=O)c1nc(-c2ccc(C)cc2)cc(N)c1Cl` [Compound 263, Ethyl 4-amino-3-chloro-6-(4-methylphenyl)pyridine-2-carboxylate] showed a melting point of 129 to 130 °C.
